For assay [1], the system named is Homo sapiens. Kind of assay: Effect on hemoglobin levels in stage 3 and 4 chronic kidney disease patient at 200 to 700 mg administered for 28 days measured on day 29 (reference value: 9.91 g/dl). The class given is functional.
Assay [2] relates to Homo sapiens. In words: Increase in hemoglobin levels in stage 3, 4, 5 chronic kidney disease patient at 200 to 700 mg administered for 28 days measured on day 29 relative to control. The class given is functional.
The subject of assay [3] is Homo sapiens. In words: Increase in hemoglobin levels in stage 5D chronic kidney disease patient at 200 to 700 mg administered for 28 days measured on day 29 relative to control. The class given is functional.
For assay [4], the target named is Prolyl hydroxylase EGLN2 (Homo sapiens, UniProt Q96KS0). Kind of assay: Inhibition of recombinant human HIF-PHD1 expressed in insect Sf9 cells using biotinyl-DLDLEMLAPYIPMDDDFQL as substrate after 60 mins by DELFIA.
Chain of Prolyl hydroxylase EGLN2 (Q96KS0 whole entry): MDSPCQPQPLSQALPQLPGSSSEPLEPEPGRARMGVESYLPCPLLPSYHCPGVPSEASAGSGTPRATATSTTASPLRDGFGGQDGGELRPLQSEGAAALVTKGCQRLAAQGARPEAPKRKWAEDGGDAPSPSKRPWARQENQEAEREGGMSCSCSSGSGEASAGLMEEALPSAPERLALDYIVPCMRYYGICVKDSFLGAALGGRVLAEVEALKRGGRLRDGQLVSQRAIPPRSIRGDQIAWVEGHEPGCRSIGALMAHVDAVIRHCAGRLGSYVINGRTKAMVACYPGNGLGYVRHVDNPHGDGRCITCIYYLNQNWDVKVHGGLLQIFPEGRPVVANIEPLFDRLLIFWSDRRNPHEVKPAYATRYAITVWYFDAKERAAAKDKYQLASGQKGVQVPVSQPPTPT
The target of assay [5] is Prolyl hydroxylase EGLN3 (Homo sapiens, UniProt Q9H6Z9). Kind of assay: Inhibition of recombinant human HIF-PHD3 expressed in insect Sf9 cells using biotinyl-DLDLEMLAPYIPMDDDFQL as substrate after 60 mins by DELFIA.
Chain of Prolyl hydroxylase EGLN3 (Q9H6Z9 whole entry): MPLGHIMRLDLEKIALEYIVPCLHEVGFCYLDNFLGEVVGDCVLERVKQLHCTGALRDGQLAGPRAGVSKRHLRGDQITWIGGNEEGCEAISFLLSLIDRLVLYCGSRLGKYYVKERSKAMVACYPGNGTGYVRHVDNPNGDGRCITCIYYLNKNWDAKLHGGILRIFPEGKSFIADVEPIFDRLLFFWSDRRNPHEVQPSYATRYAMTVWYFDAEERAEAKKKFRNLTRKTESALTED
In assay [6] the target is Egl nine homolog 1 (Homo sapiens, UniProt Q9GZT9). In words: biochemical.
Chain of Egl nine homolog 1 (Q9GZT9 whole entry): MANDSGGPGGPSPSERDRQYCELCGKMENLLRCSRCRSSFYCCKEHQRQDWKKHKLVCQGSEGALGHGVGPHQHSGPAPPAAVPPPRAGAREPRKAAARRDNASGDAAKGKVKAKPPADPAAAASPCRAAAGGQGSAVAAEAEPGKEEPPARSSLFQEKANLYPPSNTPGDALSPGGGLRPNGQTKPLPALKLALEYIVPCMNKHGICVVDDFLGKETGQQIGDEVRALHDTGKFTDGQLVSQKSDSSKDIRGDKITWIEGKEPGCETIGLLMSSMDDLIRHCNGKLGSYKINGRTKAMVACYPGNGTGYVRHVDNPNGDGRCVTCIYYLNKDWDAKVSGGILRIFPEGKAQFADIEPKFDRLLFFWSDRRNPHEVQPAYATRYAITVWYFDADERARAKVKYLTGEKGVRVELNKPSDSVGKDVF
For assay [7], the system named is Homo sapiens. In words: Increase in endogenous erythropoietin levels in human administered as single oral dose relative to control. Format: functional.
Assay [8] deals with Homo sapiens. In words: Increase in hemoglobin levels in renal anemia patient at 40 to 120 mg administered for 4 weeks. Format: functional.

Some results are limits rather than exact numbers.

In assay [1], `O=C(O)CNC(=O)c1ncc(-c2cccc(Cl)c2)cc1O` came in with an Activity of 10.54 g/dL.
Regarding `O=C(O)CNC(=O)C1C(=O)N(C2CCCCC2)C(=O)N(C2CCCCC2)C1=O` [DAPRODUSTAT], the Activity in assay [2] is given as 63 - 91%; in assay [3], 71 - 89%.
Regarding `Oc1c(-n2ccnn2)cnn1-c1cc(N2CCOCC2)ncn1` [MOLIDUSTAT SODIUM], the values for the IC50 in assay [4], in assay [5] and in assay [6] were 480 nM, 450 nM and 280 nM, respectively.
Take `Cc1nc(C(=O)NCC(=O)O)c(O)c2ccc(Oc3ccccc3)cc12` [ROXADUSTAT]: the “fold change (FC)” value in assay [7] is “<=8”. In addition, the Activity result in assay [8] is given as “>=1 g/dl”.

For the origin of these results see ChEMBL document CHEMBL3861947 (Medchemcomm, 2016).
